Measured values reported in patent publication US5498632A, “Esters of acyl carnitines with long-chain aliphatic alcohols and pharmaceutical compositions containing same having antibacterial activity” (Sigma-Tau Industrie Farmaceutiche Riunite S.p.A., priority 1992, dated 1996).
Read-outs that look alike come from different tables or passages of the source.

Legend:
Format in all cases: cell-based
Gram+ bacterial strains = experiment: Mean MIC in broth and resistant strain number, Gram+ strains; conditions: 18 h, versus susceptible strains
Procedure: (§1) Evaluation of the Minimal Inhibitory Concentration (MIC) in broth of 15 new substances for Gram+ bacterial strains.
(§2) The following strains were used: Staphylococcus aureus (4); Streptococcus faecalis (8); Bacillus pumilus (1); Bacillus subtilis (1).
(§3) MICs were determined by a standard microdilution test, using serial two-fold dilutions of the substances in Mueller-Hinton broth.
(§4) The inoculum was prepared from an overnight culture in Mueller-Hinton broth matching the 0.5 Mc Farland (turbidity) standard (BRAY W. E., Clinical Laboratory Methods, 5th Ed. C. V. MOSBY, St. Louis, Mo. 1957), and was adjusted to a final concentration of 5.0×10^4 colony-forming units/ml.
(§5) Equal volumes (0.1 ml) of both bacterial suspensions and substance solutions were distributed in microtiter plates (Falcon, 96 wells, round bottom), and then placed in a humidified incubator (37° C.) for 18 hours.
(§6) The results, in terms of MIC values, resistant strain number and mean MIC values versus susceptible strains, are illustrated in Tables 1-6.

Gram- bacterial strains = experiment: Mean MIC in broth and resistant strain number, Gram- strains; conditions: 18 h, read-out: Mean MIC values
Procedure: as §3, §4, §5
(§7) Evaluation of the Minimal Inhibitory Concentration (MIC) in broth of 16 new substances for Gram- bacterial strains.
(§8) The following strains were used: Enterobacter (1), Escherichia (3), Klebsiella (3), Proteus (3); Pseudomonas (2); Salmonella (2), Serratia (1).

Escherichia coli (92 F) = experiment: MIC in broth, Gram- strains; conditions: 18 h, E. coli (92 F), read-out: Minimal Inhibitory Concentration (MIC)
Procedure: as §3, §4, §5, §7, §8

[1] = test system: Pseudomonas aeruginosa (10 E); experiment: MIC in broth, Gram- strains; conditions: 18 h, read-out: Minimal Inhibitory Concentration (MIC)
Procedure: as §3, §4, §5, §7, §8

Proteus mirabilis (32) = experiment: MIC in broth, Gram- strains; conditions: 18 h, read-out: Minimal Inhibitory Concentration (MIC)
Procedure: as §3, §4, §5, §7, §8

[2] = test system: Salmonella typhimurium (D.S.); experiment: MIC in broth, Gram- strains; conditions: Salmonella enterica, 18 h, read-out: Minimal Inhibitory Concentration (MIC)
Procedure: as §3, §4, §5, §7, §8

Salmonella typhi (J) = experiment: MIC in broth, Gram- strains; conditions: Salmonella enterica, 18 h, read-out: Minimal Inhibitory Concentration (MIC)
Procedure: as §3, §4, §5, §7, §8

Proteus morganii (D.S.) = experiment: MIC in broth, Gram- strains; conditions: Morganella morganii, 18 h, read-out: Minimal Inhibitory Concentration (MIC)
Procedure: as §3, §4, §5, §7, §8

Escherichia coli (R 57B) = experiment: MIC in broth, Gram- strains; conditions: 18 h, E. coli (R 57B), read-out: Minimal Inhibitory Concentration (MIC)
Procedure: as §3, §4, §5, §7, §8

Klebsiella oxytoca (552) = experiment: MIC in broth, Gram- strains; conditions: 18 h, read-out: Minimal Inhibitory Concentration (MIC)
Procedure: as §3, §4, §5, §7, §8

Proteus vulgaris (UM) = experiment: MIC in broth, Gram- strains; conditions: 18 h, read-out: Minimal Inhibitory Concentration (MIC)
Procedure: as §3, §4, §5, §7, §8

[3] = test system: Pseudomonas aeruginosa (3 E); experiment: MIC in broth, Gram- strains; conditions: 18 h, read-out: Minimal Inhibitory Concentration (MIC)
Procedure: as §3, §4, §5, §7, §8

[4] = test system: Klebsiella pneumoniae (7823); experiment: MIC in broth, Gram- strains; conditions: 18 h, read-out: Minimal Inhibitory Concentration (MIC)
Procedure: as §3, §4, §5, §7, §8

[5] = test system: Klebsiella aerogenes (SH 1082); experiment: MIC in broth, Gram- strains; conditions: 18 h, read-out: Minimal Inhibitory Concentration (MIC)
Procedure: as §3, §4, §5, §7, §8

[6] = test system: Streptococcus faecalis (518); experiment: MIC in broth, Gram+ strains; conditions: Enterococcus faecalis; S. faecalis (518), Mueller-Hinton broth, 37° C., 18 hours; read-out: Minimal Inhibitory Concentration (MIC)
Procedure: as §1, §2, §3, §4, §5, §6

[7] = test system: Staphylococcus aureus (ATCC 14154); experiment: MIC in broth, Gram+ strains; conditions: ATCC14154, S. aureus (ATCC 14154), Mueller-Hinton broth, 37° C., 18 hours, read-out: Minimal Inhibitory Concentration (MIC)
Procedure: as §1, §2, §3, §4, §5, §6

[8] = test system: Streptococcus faecalis (505); experiment: MIC in broth, Gram+ strains; conditions: Enterococcus faecalis; S. faecalis (505), Mueller-Hinton broth, 37° C., 18 hours; read-out: Minimal Inhibitory Concentration (MIC)
Procedure: as §1, §2, §3, §4, §5, §6

[9] = test system: Bacillus pumilus (CN 607); experiment: MIC in broth, Gram+ strains; conditions: B. pumilus (CN 607), Mueller-Hinton broth, 37° C., 18 hours, read-out: Minimal Inhibitory Concentration (MIC)
Procedure: as §1, §2, §3, §4, §5, §6

[10] = test system: Staphylococcus aureus (306 MR); experiment: MIC in broth, Gram+ strains; conditions: S. aureus (306 MR), Mueller-Hinton broth, 37° C., 18 hours, read-out: Minimal Inhibitory Concentration (MIC)
Procedure: as §1, §2, §3, §4, §5, §6

[11] = test system: Streptococcus faecalis (519); experiment: MIC in broth, Gram+ strains; conditions: Enterococcus faecalis; S. faecalis (519), Mueller-Hinton broth, 37° C., 18 hours; read-out: Minimal Inhibitory Concentration (MIC)
Procedure: as §1, §2, §3, §4, §5, §6

[12] = test system: Streptococcus faecalis (509); experiment: MIC in broth, Gram+ strains; conditions: Enterococcus faecalis; S. faecalis (509), Mueller-Hinton broth, 37° C., 18 hours; read-out: Minimal Inhibitory Concentration (MIC)
Procedure: as §1, §2, §3, §4, §5, §6

[13] = test system: Streptococcus faecalis (UM); experiment: MIC in broth, Gram+ strains; conditions: Enterococcus faecalis; S. faecalis (UM), Mueller-Hinton broth, 37° C., 18 hours; read-out: Minimal Inhibitory Concentration (MIC)
Procedure: as §1, §2, §3, §4, §5, §6

[14] = test system: Bacillus subtilis (ATCC 6051); experiment: MIC in broth, Gram+ strains; conditions: ATCC6051, B. subtilis (ATCC 6051), Mueller-Hinton broth, 37° C., 18 hours, read-out: Minimal Inhibitory Concentration (MIC)
Procedure: as §1, §2, §3, §4, §5, §6

[15] = test system: Streptococcus faecalis (501); experiment: MIC in broth, Gram+ strains; conditions: Enterococcus faecalis; S. faecalis (501), Mueller-Hinton broth, 37° C., 18 hours; read-out: Minimal Inhibitory Concentration (MIC)
Procedure: as §1, §2, §3, §4, §5, §6

[16] = test system: Streptococcus faecalis (R 2); experiment: MIC in broth, Gram+ strains; conditions: Enterococcus faecalis; S. faecalis (R 2), Mueller-Hinton broth, 37° C., 18 hours; read-out: Minimal Inhibitory Concentration (MIC)
Procedure: as §1, §2, §3, §4, §5, §6

[17] = test system: Staphylococcus aureus (LC1); experiment: MIC in broth, Gram+ strains; conditions: S. aureus (LC1), Mueller-Hinton broth, 37° C., 18 hours, read-out: Minimal Inhibitory Concentration (MIC)
Procedure: as §1, §2, §3, §4, §5, §6

[18] = test system: Streptococcus faecalis (516); experiment: MIC in broth, Gram+ strains; conditions: Enterococcus faecalis; S. faecalis (516), Mueller-Hinton broth, 37° C., 18 hours; read-out: Minimal Inhibitory Concentration (MIC)
Procedure: as §1, §2, §3, §4, §5, §6

[19] = test system: Staphylococcus aureus (303); experiment: MIC in broth, Gram+ strains; conditions: S. aureus (303), Mueller-Hinton broth, 37° C., 18 hours, read-out: Minimal Inhibitory Concentration (MIC)
Procedure: as §1, §2, §3, §4, §5, §6

| Structure (SMILES) | MIC (Gram+ bacterial strains) | MIC (Escherichia coli (92 F)) | MIC [1] | MIC (Proteus mirabilis (32)) | MIC [2] | MIC (Salmonella typhi (J)) | MIC (Proteus morganii (D.S.)) | MIC (Escherichia coli (R 57B)) | MIC (Klebsiella oxytoca (552)) | MIC (Proteus vulgaris (UM)) | MIC [3] | MIC [4] | MIC [5] | MIC [6] | MIC [7] | MIC [8] | MIC [9] | MIC [10] | MIC [11] | MIC [12] | other results |
| --- | --- | --- | --- | --- | --- | --- | --- | --- | --- | --- | --- | --- | --- | --- | --- | --- | --- | --- | --- | --- | --- |
| CCCCCCCCCCCOC(=O)CC(C[N+](C)(C)C)OC(=O)CCC(C)C (centres unmarked) [ST 1034] | 2 µg/mL | 25 µg/mL | 50 µg/mL | > 100 µg/mL | 100 µg/mL | 25 µg/mL | 100 µg/mL | 50 µg/mL | 12.5 µg/mL | > 100 µg/mL | 50 µg/mL | 12.5 µg/mL | 25 µg/mL | 1.56 µg/mL | 3.12 µg/mL | 1.56 µg/mL | 1.56 µg/mL | 3.12 µg/mL | 1.56 µg/mL | 1.56 µg/mL | MIC (Gram- bacterial strains; Gram- strains, versus susceptible strains): 45 µg/mL; MIC [13]: 1.56 µg/mL; MIC [14]: 3.12 µg/mL; MIC [15]: 1.56 µg/mL; MIC [16]: 1.56 µg/mL; MIC [17]: 1.56 µg/mL; MIC [18]: 1.56 µg/mL; MIC [19]: 3.12 µg/mL |
| CCCCCCCCCCCOC(=O)CC(C[N+](C)(C)C)OC(=O)CCCCCC (centres unmarked) [ST 1036] | 2.45 µg/mL | 25 µg/mL | > 100 µg/mL | > 100 µg/mL | > 100 µg/mL | 25 µg/mL | > 100 µg/mL | > 100 µg/mL | 50 µg/mL | > 100 µg/mL | 100 µg/mL | 12.5 µg/mL | 100 µg/mL | 3.12 µg/mL | 3.12 µg/mL | 1.56 µg/mL | 1.56 µg/mL | 3.12 µg/mL | 3.12 µg/mL | 1.56 µg/mL | MIC (Gram- bacterial strains): 60.7 µg/mL; MIC [13]: 1.56 µg/mL; MIC [14]: 3.12 µg/mL; MIC [15]: 1.56 µg/mL; MIC [16]: 3.12 µg/mL; MIC [17]: 1.56 µg/mL; MIC [18]: 3.12 µg/mL; MIC [19]: 3.12 µg/mL |
